Test results taken from patent publication US20060157667A1, “Method and compositions for controlling release of organic compositions” (Board of Trustees of Michigan State University, priority 2005, published 2006).
Where “and” joins values, the source holds several entries; their conditions need not be identical. Identical values can stand only once.

Test: Pesticide sorption from water by K- and Ca-SWy-2 smectite clay, batch equilibration method
Assay type: physicochemical
Conditions: for pesticide distribution coefficient for sorption by homoionic K-SWy-2: relative concentration of 0.1 (aqueous equilibrium concentration/aqueous solubility), 0.25 M KCl solution; for change in sorption by sorbents derived from Ca-SWy-2 as fK increased from zero to 0.71: Ca-SWy-2 exchanged with KCl; for sorption by K-SWy-2 relative to sorption by Ca-SWy-2: relative aqueous concentration of 0.1
Method: Pesticide sorption from water solution by K— and Ca—SWy-2 mixed with different ratios of aqueous KCl to CaCl2 (kept at a fixed ionic strength of 0.25 M) were measured using a batch equilibration method. A series of initial pesticide concentrations were prepared in the following electrolyte solutions: 0.25 M KCl, 0.24 M KCl/0.003 M CaCl2; 0.20 M KCl/0.016 M CaCl2; 0.15 M KCl/0.033 M CaCl2; 0.10 M KCl/0.05 M CaCl2; 0.05 M KCl/0.067 M CaCl2; 0.01 M KCl/0.08 M CaCl2; and 0.083 M CaCl2. Clays were weighed into glass centrifuge tubes, solute solutions over a range of initial pesticide concentrations were added, and the tubes were closed with Teflon-lined screw caps. The tubes were then shaken reciprocally at 40 rpm for 24 h at room temperature (23±2° C.), followed by centrifugation at 2600 g for 30 min. Previous studies have shown that equilibrium was reached within this period of time (Sheng, G., et al., J. Agri. Food Chem. 49, 2899-2907 (2001); and Sheng, G., et al., Clays Clay Miner. 50, 25-34 (2002)). Supernatants were sampled and subject to analysis for pesticide concentrations using a Perkin-Elmer High Performance Liquid Chromatography (HPLC) system consisting of a Binary 250 LC pump, a Series 200 autosampler and a Series 200 UV-Visible detector. The optimal wavelength was set at 238 nm for dichlobenil, 250 nm for monuron and 248 nm for biphenyl. An Alltech platinum extended polar selectivity C18 column (15 cm by 4.6 mm i.d.) was used for dichlobenil and monuron, and an Alltech adsobosphere C18 column (25 cm by 4.6 mm i.d.) was used for biphenyl. The mobile phase composition was a mixture of methanol and water, and was optimized for each pesticide. Controls consisted of identical pesticide solutions in the corresponding electrolytes, but with no clay present. No changes in solute concentrations were detected in the tubes devoid of clay within the experimental period; therefore, solute mass lost in the supernatant from clay slurries was assumed to be sorbed by clay. The amount of pesticide sorbed was calculated from the difference between the initial and equilibrium solute concentration in aqueous solution.
The actual population of exchangeable K^+ and Ca^2+ associated with the clay was measured in a separate experiment using the BaCl2 extraction method (Rhoades, J. D., Method of Soil Analysis part 2: Chemical and Microbiological Properties; 2nd ed., American Society of Agronomy: Madison, Wis. 149-158 (1982)). The same amounts of clays and electrolyte solutions used in the sorption studies were added into glass centrifuge tubes, the tubes were shaken for 24 h at room temperature then centrifuged at 2600 g for 30 min. Aqueous supernatants were removed, diluted and analyzed by a Perkin-Elmer 3110 atomic absorption spectrophotometer (AAS). The mass of K^+ and Ca^2+ remaining in the residual supernatant was accounted for by assuming their concentrations to be the same as that measured in the bulk supernatant; residual supernatant that could not be removed was determined gravimetrically. The clay pellets were extracted three times using 0.1 M BaCl2, then washed three times with Milli-Q water. The supernatants from the water washing were combined with the supernatants from the BaCl2 extraction step, diluted and analyzed by AAS. The K^+ and Ca^2+ concentrations were measured using the external standards prepared with the matching matrix background of extraction reagents.
We compared sorption coefficients for clays derived from homoionic Ca—SWy-2 vs. those derived from homoionic K—SWy-2 after the homoionic clays had been treated with different amounts of CaCl2/KCl aqueous solutions. […] Replacement of K^+ from K—SWy-2 by Ca^2+ (from fK=1 to 0.66) manifested gradually diminishing sorption of dichlobenil to ˜40% of that by homoionic K—SWy-2.

[1] = relative aqueous concentration 0.1

Structure (SMILES) | sorption across variation of K+ fractions on minerals from zero to one (relative concentration 0.1, FIG. 4) | pesticide distribution coefficient for sorption by homoionic K-SWy-2 | change in sorption by sorbents derived from Ca-SWy-2 as fK increased from zero to 0.71 [1] | sorption relative to that by homoionic K-SWy-2 after replacement of K+ by Ca2+ (K-SWy-2 derived clay, fK from 1 to 0.66, relative concentration 0.1) | sorption by clay derived from K-SWy-2 (fK=0.66) relative to clay derived from Ca-SWy-2 (fK=0.71) (comparable fK, different starting clay) | sorption by K-SWy-2 relative to sorption by Ca-SWy-2 | sorption enhancement by Ca-SWy-2 derived sorbents at fK as high as 0.71 (Ca2+ replaced by K+, sorption isotherms, FIG. 2) | change in sorption when K-SWy-2 underwent exchange with CaCl2, fK from 1 to 0.81 [1]
c1ccc(-c2ccccc2)cc1 [Biphenyl, 1,1′-biphenyl] | remained nearly constant | 6.4 L/kg |  |  |  |  |  | 
N#Cc1c(Cl)cccc1Cl [Dichlobenil, 2,6-dichlorobenzonitrile] |  | 580 L/kg | increased by approximately four times | ~40% | ~10 times and 8 times | approximately 75 times higher |  | 
CN(C)C(=O)Nc1ccc(Cl)cc1 [Monuron, N′-(4-chlorophenyl)-N,N-dimethylurea] |  | 27 L/kg | No apparent enhancement |  |  | ~4 times higher | ca. 205 | reduced by about half
